According to US7196063B1, “Peptides and pharmaceutical compositions comprising same” (NST NeuroSurvival Technologies Ltd., priority 1999, dated 2007):
Like-named read-outs stand apart in the source and are kept apart here.

Columns and labels:
apoptotic HeLa cells = assay: Binding to single apoptotic HeLa cells, fluorescent microscopy; format: cell-based
Procedure: Chamber slides were pre-coated with 0.1% gelatin (G-1393 Sigma). Cells were seeded at a density of 8×10^4 cells/chamber, in a volume of 300 μl of culture medium. Apoptosis was induced by treatment with dopamine (RBI, MA, USA). Following 24 hours of incubation, the medium was replaced by a low serum-containing medium (2% FCS), with 500 μM of dopamine, for 18 hours. Non-treated cells that served as control, were kept in the growing medium without dopamine.
For evaluation of apoptosis, cells were stained with 1 mg/ml of Hoechst 33342 dye (Molecular probes). Twenty minutes later, cells were visualized under UV light microscopy and the relative number of apoptotic cells with condensed or fragmented chromatin was then evaluated and compared with non-apoptotic cells, showing a pale and diffuse staining. Photomicrographs were taken for documentation, but are not shown here. For staining with NST500 compounds, the tested cultures were grown as specified above and washed twice with TBS (Tris Buffered Saline; 10 mM Tris PH 8.0; 150 mM NaCl). […]
As a positive control, binding of Annexin V was performed using commercial kit (Genzyme, Mass.). Binding was evaluated with a fluorescent microscope (IX70; Olympus), using an NIBA filter (Narrow Interference Blue A from Olympus) and a ×400 magnification. […]

cardiolipin = tested on: cardiolipin
Description: The antiphospholipid antibody syndrom (APS) is a thrombophilic condition, characterized by a panel of antibodies that recognize anionic phospholipid-protein cofactor complexes. The antiphospholipid antibodies lupus anticoagulant and anticardiolipin, (present in high concentrations in SLE patients), are associated with several medical disorders including artherial and venous thrombosis, and recurrent pregnancy loss (Rand J H et al., 1998, Blood. 92, 1652–1660). […] Noncellular negatively charged phospholipid coated surface (cardiolipin) were chosen as a target for binding.
CL, (Diphosphatidylglycerol, c-1649, Sigma), prepared at 50 μg/ml in ethanol, was added to a 96 well plate (100 μl/well) using Immunolon 4 plates (Dynatech, Chantilly, Va.) and incubated for 16–20 hr for evaporation of ethanol. As control, wells were coated with ethanol only. The coated plates were washed 3 times with 100 μl of blocking buffer (PBS containing 0.3% gelatin (Sigma) and 1 mM EDTA) to block non specific binding. A 5 min incubation time was used between each wash. Normal plasma (Ilex, Italy, 84670-11) and plasma derived from SLE patients (either from Gradipore, Australia, LAHP-1, or from Biopool, Ventura, Calif.) were prepared according to the producer's instruction. The plasma was diluted 1/10 in the blocking buffer and was added to the CL and ethanol coated wells. […] Following 3 hr incubation, the plates were washed twice with PBS/BSA buffer (0.4% bovine serum albumine (BSA) in PBS). For detection of anti cardiolipin binding property of the tested plasma, the plates were incubated with a 1/10000 dilution of Peroxidase-conjugated affinity purified Goat anti-human IgG (Jackson Immunoresearch lab.) in PBS/BSA buffer for 1 hour. The plates were then washed 3 times with PBS/BSA buffer, and color reaction was developed by incubation with 100 ul of 0-phenylenedi-amine (OPD) dihydrochloride (Sigma p-7288) at a concentration of 0.4 mg/ml in 0.05 M phosphate citrate buffer, pH 5.0 supplemented with 4 ul of 30% hydrogen peroxide (Aldrich) for 10 ml mixture. To detect the level of NST500 compounds that were bound to CL, parallel wells were incubated with streptavidin conugated to OPD (SA-OPD, Jackson Immunoresearch lab.), that specifically recognize the biotinylated NST 500 compounds. The resulting colour changes were recorded at 405 nm using a Bio Tek Elx800 Eliza reader.

apoptotic hepatocytes = format: in vivo, mice; conditions: mouse, in vivo
Procedure: Massive hepatic apoptosis can be induced within 1–2 hr in mice following intravenous injection of anti-Fas antibody (Ogasawara J. et al., 1993, Nature, 364, 806–809). […] Five-weeks-old male BALB/c mice were injected intravenously with 10 μg/animal of purified hamster anti-Fas mAb (Jo2, PharMingen, San Diego, Calif.) using the model described by Ogasawara et. al. (Nature, 1993, 364, 806–809). […] Injections were performed at different time intervals between 5 min–2 hr after antibody treatment. […] All animals were killed 2 hr after administration of antibody followed by organ removal. Heart, lung and liver were collected. Liver were sectioned transversely across the mid-portion of each lobe; organs were fixed in phosphate-buffered formalin for histological and immunohisto-chemical analyses.
Formalin fixed paraffin-embedded tissues were sectioned (5 μm) for staining with Hematoxylin/Eosin or other techniques. Endogenous peroxidase activity was blocked by incubation with 3% H2O2.
After washing with PBS, staining was developed with 3,3-diaminobenzidine tetrahydrochloride (DAB), and counterstained with Hematoxylin.
Liver sections from different lobes were used for detection of stained apoptotic cells compared to normal cells. Using light microscopy (×400), twenty fields of stained cells were evaluated. A ratio between the number of stained apoptotic hepatocytes versus stained normal hepatocytes in the field was defined. The stained cell's score (%) corresponds to the mean of the values for the twenty evaluated fields.
The percentage of apoptotic cells in the fields was estimated by evaluating parallel sections stained with Hematoxylin/Eosin. Analysis was performed blindly, since the pathologist performing the histological evaluation was unaware of the assignment of mice to the treatment or control group.
To quantitate the microscopic examination of the pharmacokinetics studies, the number of stained cells from 20 microscopic fields was counted.

Substance: Myristate-KVSFFCKNKEKKC-K (SEQ ID NO:1) (biotin) [NST513]
- labeling of apoptotic HeLa cells (apoptotic HeLa cells): potent detector of apoptotic cells
- labeling of control non-treated HeLa cells (apoptotic HeLa cells): did not exhibit significant labeling
- displacement of plasma derived from SLE patients from cardiolipin (cardiolipin; 1 μM): did not exhibit displacement
- displacement of plasma derived from SLE patients from cardiolipin (cardiolipin; 10 μM): almost complete displacement
- inhibition of binding of plasma derived from SLE patients to cardiolipin, dose response (cardiolipin; 1–10 μM): marked displacement of IgG
- increase in number of stained apoptotic cells as compared to non specific staining of non-apoptotic cells (apoptotic hepatocytes): 3 times
- ratio of apoptotic stained cells vs non-apoptotic cells (apoptotic hepatocytes): 5 fold
- staining of normal hepatocytes (apoptotic hepatocytes): never observed
- staining of apoptotic hepatocytes in anti-Fas treated mice (apoptotic hepatocytes; iv): observed at cytoplasma and cytoplasmatic border of apoptotic hepatocytes
